Data: ChEMBL document CHEMBL1201862, “PubChem BioAssay data set” (2004)
Active and inactive are the calls of the source. No stated cut-off is given here; in the data, actives have a measured IC50 and inactives only a lower limit.

Tests used:
Format in all cases: functional
[1] = target: T1, Sentrin-specific protease 6 (Homo sapiens, UniProt Q9GZR1);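 further: Luminescence-based dose-response confirmatory assay of SENP6 inhibition, following up an ultra-high-throughput screen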
T1 sequence (Q9GZR1 whole entry): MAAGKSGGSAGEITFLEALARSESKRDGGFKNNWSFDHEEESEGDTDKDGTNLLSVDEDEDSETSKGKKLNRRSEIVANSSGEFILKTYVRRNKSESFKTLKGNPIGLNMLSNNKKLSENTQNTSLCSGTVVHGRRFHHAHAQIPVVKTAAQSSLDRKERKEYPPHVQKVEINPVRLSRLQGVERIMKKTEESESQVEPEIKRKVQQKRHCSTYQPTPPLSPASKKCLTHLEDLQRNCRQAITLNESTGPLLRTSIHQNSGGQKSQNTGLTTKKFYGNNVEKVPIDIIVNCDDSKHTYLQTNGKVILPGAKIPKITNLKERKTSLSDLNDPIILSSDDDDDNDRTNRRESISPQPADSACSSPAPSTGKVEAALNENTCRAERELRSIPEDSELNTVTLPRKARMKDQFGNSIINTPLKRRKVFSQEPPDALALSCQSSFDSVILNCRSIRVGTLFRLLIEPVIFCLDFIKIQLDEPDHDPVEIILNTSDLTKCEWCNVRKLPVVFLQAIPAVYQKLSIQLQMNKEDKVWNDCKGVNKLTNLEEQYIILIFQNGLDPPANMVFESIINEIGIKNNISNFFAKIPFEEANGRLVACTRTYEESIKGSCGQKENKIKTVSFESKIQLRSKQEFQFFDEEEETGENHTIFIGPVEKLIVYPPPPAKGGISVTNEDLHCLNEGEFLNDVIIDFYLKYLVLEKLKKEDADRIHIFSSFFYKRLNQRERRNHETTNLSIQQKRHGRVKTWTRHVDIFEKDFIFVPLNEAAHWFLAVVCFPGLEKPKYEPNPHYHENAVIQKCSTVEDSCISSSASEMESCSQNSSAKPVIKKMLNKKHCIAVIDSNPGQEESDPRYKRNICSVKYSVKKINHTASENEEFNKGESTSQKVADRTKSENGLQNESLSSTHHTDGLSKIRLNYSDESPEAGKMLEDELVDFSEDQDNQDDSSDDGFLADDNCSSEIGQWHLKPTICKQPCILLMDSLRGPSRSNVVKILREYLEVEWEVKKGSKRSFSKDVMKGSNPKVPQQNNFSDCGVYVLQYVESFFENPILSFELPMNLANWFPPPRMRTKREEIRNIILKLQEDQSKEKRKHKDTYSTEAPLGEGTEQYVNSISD

Caspase-3 = target: T2, Caspase-3 (Homo sapiens, UniProt P42574);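 further: Dose-response selectivity test against caspase-3 for candidate inhibitors of sentrin-specific proteases (SENPs)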
T2 sequence (P42574 whole entry): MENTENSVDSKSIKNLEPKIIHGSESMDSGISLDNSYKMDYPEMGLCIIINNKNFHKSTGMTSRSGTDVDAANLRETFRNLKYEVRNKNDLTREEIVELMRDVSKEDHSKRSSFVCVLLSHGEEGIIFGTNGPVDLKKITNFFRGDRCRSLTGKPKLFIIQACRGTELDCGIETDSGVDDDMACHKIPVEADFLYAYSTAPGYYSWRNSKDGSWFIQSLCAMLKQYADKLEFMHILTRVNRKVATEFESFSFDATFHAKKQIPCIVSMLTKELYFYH

[2] = target: T3, Sentrin-specific protease 8 (Homo sapiens, UniProt Q96LD8);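 further: luminescence read-out of SENP8 inhibition, dose-response confirmation following an ultra-high-throughput screen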
T3 sequence (Q96LD8 whole entry): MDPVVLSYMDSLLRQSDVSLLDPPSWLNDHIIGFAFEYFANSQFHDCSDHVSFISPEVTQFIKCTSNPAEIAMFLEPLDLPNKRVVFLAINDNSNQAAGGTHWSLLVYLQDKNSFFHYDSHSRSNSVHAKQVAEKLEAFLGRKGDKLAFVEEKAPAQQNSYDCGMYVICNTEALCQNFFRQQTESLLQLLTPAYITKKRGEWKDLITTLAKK

[3] = target: T4, Sentrin-specific protease 7 (Homo sapiens, UniProt Q9BQF6);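 further: Luminescence-based dose-response confirmation of ultra-high-throughput screening hits, measuring inhibition of SENP7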
T4 sequence (Q9BQF6 whole entry): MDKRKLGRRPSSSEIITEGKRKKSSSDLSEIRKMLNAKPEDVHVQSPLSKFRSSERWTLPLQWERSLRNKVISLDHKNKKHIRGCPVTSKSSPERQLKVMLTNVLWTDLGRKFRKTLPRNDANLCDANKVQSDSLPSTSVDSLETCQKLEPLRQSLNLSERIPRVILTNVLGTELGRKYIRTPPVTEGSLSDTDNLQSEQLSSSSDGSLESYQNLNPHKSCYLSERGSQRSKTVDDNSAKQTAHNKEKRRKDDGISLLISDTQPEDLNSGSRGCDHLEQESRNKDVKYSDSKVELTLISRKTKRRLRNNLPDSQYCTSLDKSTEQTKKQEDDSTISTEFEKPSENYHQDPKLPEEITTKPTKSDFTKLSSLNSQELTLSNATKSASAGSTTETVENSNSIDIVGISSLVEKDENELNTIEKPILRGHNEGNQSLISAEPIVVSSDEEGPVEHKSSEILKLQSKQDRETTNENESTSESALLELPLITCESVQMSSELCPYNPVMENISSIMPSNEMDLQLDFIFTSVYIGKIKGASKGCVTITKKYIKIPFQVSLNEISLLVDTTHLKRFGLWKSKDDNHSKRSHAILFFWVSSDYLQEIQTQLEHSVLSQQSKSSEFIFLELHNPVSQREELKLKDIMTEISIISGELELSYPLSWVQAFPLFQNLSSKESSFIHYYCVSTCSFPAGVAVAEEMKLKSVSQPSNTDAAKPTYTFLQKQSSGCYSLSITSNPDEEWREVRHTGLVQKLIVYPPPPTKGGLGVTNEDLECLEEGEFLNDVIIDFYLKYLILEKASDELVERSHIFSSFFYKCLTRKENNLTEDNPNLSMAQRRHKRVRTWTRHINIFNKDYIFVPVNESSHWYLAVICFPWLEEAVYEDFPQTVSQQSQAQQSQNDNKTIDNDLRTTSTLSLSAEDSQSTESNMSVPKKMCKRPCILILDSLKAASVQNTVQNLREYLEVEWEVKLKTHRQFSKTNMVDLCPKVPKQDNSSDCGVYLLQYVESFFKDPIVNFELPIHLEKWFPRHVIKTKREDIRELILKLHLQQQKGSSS

Measured: IC50

O=C1c2ccccc2C(=O)C12OC2c1cccc2ccccc12 (configuration not stated)
active: [1] 2.37 µM | Caspase-3 91.9 µM | [2] 4.53 µM | [3] 2.86 µM

CCC(COC)Oc1cc(NCc2ccccc2)c2ncn(C(C)C)c2c1 (configuration not stated)
active: [1] 3.62 µM | Caspase-3 6.47 µM | [2] 4.26 µM | [3] 5.61 µM

O=c1[nH]c(N2CCOCC2)cc2ccccc12
active: [1] < 1.55 µM | Caspase-3 1.59 µM | [2] 2.12 µM | [3] 1.96 µM
